Consider 16 compounds from patent US20130040390A1, “CULTURE MEDIUM SUPPLEMENT AND USE THEREOF” (GUANGZHOU INSTITUTES OF BIOMEDICINE AND HEALTH, CHINESE …, priority 2010, published 2013).

What all share (format): cell-based, mouse
In assay [1] the test system is Oct4-GFP MEFs. The assay can be described thus: iPS efficiency test: MEFs infected with SKO viruses, reprogrammed clones counted / GFP cell ratio by FCM. The settings on record: for effect on the iCD1 reprogramming efficiency: added to iCD1: A83-01 0.5 μM, valproic acid 1 mM, 2% fetal bovine serum; for effect on the reprogramming efficiency: ingredient left out of iCD1, clones at day 8 after SKO infection; for recommended working concentration: from dose-response in Basal3.0, day 10. The text has this: Somatic cell type used in reprogramming is OG2 MEFs of no more than 3 passages. OG2 mice are transgenic mice with green fluorescent protein (GFP) gene linked after the promoter of Oct4 gene specifically expressed by stem cell. At a later stage of the reprogramming, endogenous Oct4 of OG2 MEF is activated, and the green fluorescent protein is concomitantly expressed, so the cells or reprogrammed clones appear green when observed under a fluorescence microscope. The reprogramming efficiencies under different conditions can be compared by a research by directly counting the reprogrammed clones, that is, the green fluorescent clones under a fluorescence microscope, or by analyzing the ratio of the green fluorescent cells through flow cytometry (FCM).
Cell assay and preparation of viruses are as follows. […] 6-18 hrs after the cell seeding, the cells are infected with the viruses carrying a mouse reprogramming factor according to the cell density and state. The infection is carried out in two rounds, 24 hrs after the first round of infection, the second round of infection is carried out, and the virus fluid is replaced by various test media 24 hrs after the second round of infection. The day of replacing the virus fluid is recorded as day 0 (D0), and the GFP fluorescent clones are counted in the original wells or the ratio of the GFP fluorescent cells are analyzed by flow cytometry (FCM) at different times after infection as desired.
The preparation of virus includes transfecting virus packaging cells (PlatE) with reprogramming factor plasmid cloned onto a PMX vector, refreshing the culture media 12-16 hrs after infection, using the culture collected 48 hrs after the transfection as a virus fluid for the first infection, and using the additional culture collected 24 hrs after adding fresh culture as a virus fluid for the second infection. […]

Assay [2] concerns Oct4-GFP MEFs. The assay is described as above. The settings on record: 1×10^4 MEFs, clones at day 10.
Assay [3] has as its system Oct4-GFP MEFs. The assay can be described thus: Growth curves of SKO-infected embryonic fibroblasts in iCD1 lacking single ingredients. The settings on record: ingredient left out of iCD1, cells counted at D0, day 3, day 6. The text has this:
In order to determine whether the effects of the above six substances on reprogramming are cell growth dependent or independent, growth curves of the embryonic fibroblasts infected with reprogramming factor SKO and then cultured respectively in 9 culture states including iCD1, iCD1 without vitamin C, iCD1 without bFGF, iCD1 without CHIR99021, iCD1 without lithium chloride, iCD1 without vitamin B12, iCD1 without thiamine, iCD1 without all of the six ingredients, and mES were plotted. 2×10^4 initial Oct4-GFP MEFs were infected with SKO viruses, and then cultured respectively in the above 9 culture media. The cells were digested respectively at the day of infection and medium replacement (day D0) and days 3 and 6 after infection, and the cells per well were counted. The replications n in each group of test are 3, and the error bar represents standard deviation (SD).

`CCCC(CCC)C(=O)O` [valproic acid (VPA), valproic acid, reference compound]: the “effect on the iCD1 reprogramming efficiency” value with Oct4-GFP MEFs [1] (clones at day 10) is on record as “cannot further improve the iCD1 reprogramming efficiency”.
The same measure, in the same setting: as for `Cc1cccc(-c2nn(C(=S)Nc3ccccc3)cc2-c2ccnc3ccccc23)n1` [A83-01, reference compound], the entry is “cannot further improve the iCD1 reprogramming efficiency”.
Consider `Cc1c[nH]c(-c2cnc(NCCNc3ccc(C#N)cn3)nc2-c2ccc(Cl)cc2Cl)n1` [CHIR99021, reference compound], for which, in the assay on Oct4-GFP MEFs [2] (in iCD1, 0-12 μmol/ml), the optimum effect concentration result is “about 3 mM”. Besides, in the assay with Oct4-GFP MEFs [3], the “effect on cell growth” value is “different degrees of effects on cell growth”. Also, the “effect on reprogramming efficiency of Basal3.0” value in the assay on Oct4-GFP MEFs [1] (added to Basal3.0, clone number and cell ratio as indexes) is “can significantly improve the reprogramming efficiency”. Further, the “effect of high dose on the reprogramming efficiency” value with Oct4-GFP MEFs [1] (in iCD1, 0-12 μmol/ml, clones at day 10) is given as “inhibition effect on the reprogramming efficiency”. Moreover, in the assay with Oct4-GFP MEFs [1], the “effect on the reprogramming efficiency” value was “especially remarkable”.
For bFGF: basic fibroblast growth factor, the “final concentration above which an increase has no obvious improvement effect on the reprogramming efficiency” value with Oct4-GFP MEFs [2] (in iCD1, 0-10 ng/ml) is reported as “higher than 5 ng/ml”. Also, in the assay with Oct4-GFP MEFs [3], the “effect on cell growth” value is reported as “different degrees of effects on cell growth”. For the same compound, in the assay with Oct4-GFP MEFs [1] (added to iCD1 at different times from days 0 to 10, clones at day 10, n=6), the “period of the reprogramming in which it mainly plays a role” value lay within 0 to 8 days. In the assay on Oct4-GFP MEFs [1], the recommended working concentration was 0.005 µg/mL and the “effect on the reprogramming efficiency” value is “especially remarkable”.
On to `O=C1O[C@H]([C@@H](O)CO)C(O)=C1O` [vitamin C, ascorbic acid], for which the “effect on cell growth” value in the assay with Oct4-GFP MEFs [3] is reported as “no obvious effect on cell growth”. In the assay on Oct4-GFP MEFs [1], the recommended working concentration was 50 µg/mL and the “effect on the reprogramming efficiency” value is “especially remarkable”. Besides, the “concentration above which an increase has no obvious improvement effect on the reprogramming efficiency” value with Oct4-GFP MEFs [1] (in iCD1, 0-100 μg/ml, 2×10^4 MEFs, clones at day 10) is reported as “higher than 25 μg/ml”.
Take EGF: epidermal growth factor: in the assay with Oct4-GFP MEFs [1] (added to iCD1 without receptor tyrosine kinase, clones at day 10), the “effect on reprogramming (receptor tyrosine kinase family growth factor)” value was “can also promote the reprogramming”.
For vitamin E, in the assay on Oct4-GFP MEFs [1] (anti-oxidants), the recommended working concentration was 1000 µg/mL.
In the case of `O=C(O)CCCC[C@@H]1CCSS1` (racemic) [lipoic acid], the recommended working concentration with Oct4-GFP MEFs [1] turned out to be 0.2 µg/mL.
As to `Cc1ncc(C[n+]2csc(CCO)c2C)c(N)n1` [thiamine], in the assay with Oct4-GFP MEFs [1] (anti-oxidants), the recommended working concentration is 9000 µg/mL. In the assay on Oct4-GFP MEFs [1], the “effect on the reprogramming efficiency” value was “have effects on the reprogramming efficiency”.
Consider `[Cl-].[Li+]` [lithium chloride, Lithium chloride], for which, in the assay with Oct4-GFP MEFs [1], the recommended working concentration was 5 mmol/mL and the “effect on the reprogramming efficiency” value was “have effects on the reprogramming efficiency”.
Turning to “insulin: recombinant human insulin (SIGMA Inc.) preferred”, in the assay on Oct4-GFP MEFs [1], the recommended working concentration stood at 50 µg/mL.
The same measure, in the same setting: as for vitamin A, the figure is 0.1 µg/mL.
On to vitamin B12, for which, in the assay with Oct4-GFP MEFs [1], the recommended working concentration turned out to be 1.4 µg/mL and the “effect on the reprogramming efficiency” value is reported as “have effects on the reprogramming efficiency”.
On to `N[C@@H](CCC(=O)N[C@@H](CS)C(=O)NCC(=O)O)C(=O)O` [reduced glutathione], for which the recommended working concentration with Oct4-GFP MEFs [1] (anti-oxidants) was found to be 1500 µg/mL.
Consider `CCCCC/C=C\C/C=C\CCCCCCCC(=O)O` [linoleic acid], for which, in the assay on Oct4-GFP MEFs [1], the recommended working concentration is 1 µg/mL.
On the same count and under the same terms, for `NCCO` [ethanolamine] the value was 1 µg/mL.
